Values quoted from earlier work, collected in patent US5502037A, “Pro-cytotoxic drug conjugates for anticancer therapy” (priority 1993, dated 1996).
Read-outs that look alike come from different tables or passages of the source.

Legend:
[1] = NBP test, relative to NNM; taken from Brock, 1976
[2] = system: mouse Yoshida ascites sarcoma cells; settings: for In vitro activities: Cytotoxicity: cu = cytostatic units, Yoshida ascites sarcoma cells, Brock, 1976
tumor cells = settings: for activity as the result of in vivo metabolism: once activated / metabolized

| SMILES | In vivo activities: LD50 (Yoshida ascites sarcoma; lethal dose, rat, Brock, 1976) [mg/kg] | D50 Index (LD50/CD50) (Yoshida ascites sarcoma; rat, in vivo) | In vivo activities: CD50 (Yoshida ascites sarcoma; rat, in vivo) [mg/kg] | In vitro activities: Alkylating [1] [%] | In vitro activities: Cytotoxicity [2] [CU/μmol] | activity as the result of in vivo metabolism (tumor cells) | biologic activity in vitro and in vivo before metabolism (tumor cells; initially, in vitro and in vivo) | activity in vivo against the rat Yoshida ascites sarcoma (in words) (Yoshida ascites sarcoma; comment on Table II) | In vivo activities: CD50 (Yoshida ascites sarcoma; curative dose, Yoshida ascites sarcoma in rat, Brock, 1976) [mg/kg] | In vivo activities: LD50 (Yoshida ascites sarcoma; rat, in vivo) [mg/kg] | activity in the in vitro Yoshida cell cytotoxicity test (in words) ([2]; comment on Table II) |
| --- | --- | --- | --- | --- | --- | --- | --- | --- | --- | --- | --- |
| C=CC=O [Acrolein, acrolein] | 7.3 | ~ 3 | > 2.15 | 1.9 | 0.4 | – | – | – | – | – | – |
| O=P1(N(CCCl)CCCl)NCCCO1 (stereo not drawn) [CP, cyclophosphamide] | – | 175 | – | 1.3 | < 0.03 | highly cancerotoxic | only slight biologic activity | highly active therapeutic agent | 1.25 | 220 | virtually inactive |
| O=P1(NCCCl)OCCCN1CCCl (stereo not drawn) [isophosphamide] | – | – | – | – | – | highly cytotoxic in vivo to tumor cells once activated | – | – | – | – | – |
